This is an account of results in patent US5424451A, “Process for preparing aminoalkylcarbamic esters of eseroline” (priority 1992, dated 1995).

The structures appear in SMILES notation. pIC50: −log10 of the molar value. Where two headings read alike, the source gives them in different places.

In one data set the test system is acetylcholinesterase. The conditions noted are these: cited from earlier work.
The next data set in a line: in vivo. The conditions noted are these: rat, po.
For data set [1] the following is noted: prior art; cited from earlier work.
The subject of a further data set is patients. The conditions noted are these: prior art, cited from earlier work; for Clinical effects in patients (in words): mental diseases / Alzheimer's disease.
The target of data set [2] is T1, acetylcholinesterase from human red blood cells (Homo sapiens, UniProt P22303).
T1 construct: purchased Sigma Chemical; host or cells: human erythrocyte
T1 sequence (P22303 32-617 isoform P22303-2 limits assumed): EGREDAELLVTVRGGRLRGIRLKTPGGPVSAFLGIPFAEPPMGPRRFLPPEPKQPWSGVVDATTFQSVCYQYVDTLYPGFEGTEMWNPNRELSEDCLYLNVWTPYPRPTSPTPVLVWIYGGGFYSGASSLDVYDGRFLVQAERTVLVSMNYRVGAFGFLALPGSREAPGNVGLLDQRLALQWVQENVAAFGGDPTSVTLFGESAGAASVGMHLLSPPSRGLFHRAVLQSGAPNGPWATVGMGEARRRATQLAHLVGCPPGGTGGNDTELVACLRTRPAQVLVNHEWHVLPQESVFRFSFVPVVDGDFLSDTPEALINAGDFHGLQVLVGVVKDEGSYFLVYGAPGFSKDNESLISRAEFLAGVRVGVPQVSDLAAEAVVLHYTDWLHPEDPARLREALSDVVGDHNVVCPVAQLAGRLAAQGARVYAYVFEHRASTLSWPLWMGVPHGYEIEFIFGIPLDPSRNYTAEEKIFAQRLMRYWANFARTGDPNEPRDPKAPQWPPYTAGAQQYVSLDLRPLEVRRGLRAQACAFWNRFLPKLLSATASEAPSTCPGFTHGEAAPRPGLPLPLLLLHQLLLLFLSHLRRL
The experiment in a line: Inhibition of acetylcholinesterase from human erythrocyte (Ellman colorimetric method). The format is biochemical. A general note: In Ellman's method for cholinesterases, released thiocholine reacts with DTNB.

Data set [3] concerns the target T2, butyrylcholinesterase from human serum (Homo sapiens, UniProt P06276).
T2 construct: purchased Sigma Chemical; host or cells: human serum
The data set is described as follows: Inhibition of butyrylcholinesterase from human serum (Ellman colorimetric method). The format is biochemical.

The target in data set [4] is T3, acetylcholinesterase from electric eel (Electrophorus electricus, UniProt O42275).
T3 construct: purchased Sigma Chemical; host or cells: electric eel
T3 sequence (O42275 24-633): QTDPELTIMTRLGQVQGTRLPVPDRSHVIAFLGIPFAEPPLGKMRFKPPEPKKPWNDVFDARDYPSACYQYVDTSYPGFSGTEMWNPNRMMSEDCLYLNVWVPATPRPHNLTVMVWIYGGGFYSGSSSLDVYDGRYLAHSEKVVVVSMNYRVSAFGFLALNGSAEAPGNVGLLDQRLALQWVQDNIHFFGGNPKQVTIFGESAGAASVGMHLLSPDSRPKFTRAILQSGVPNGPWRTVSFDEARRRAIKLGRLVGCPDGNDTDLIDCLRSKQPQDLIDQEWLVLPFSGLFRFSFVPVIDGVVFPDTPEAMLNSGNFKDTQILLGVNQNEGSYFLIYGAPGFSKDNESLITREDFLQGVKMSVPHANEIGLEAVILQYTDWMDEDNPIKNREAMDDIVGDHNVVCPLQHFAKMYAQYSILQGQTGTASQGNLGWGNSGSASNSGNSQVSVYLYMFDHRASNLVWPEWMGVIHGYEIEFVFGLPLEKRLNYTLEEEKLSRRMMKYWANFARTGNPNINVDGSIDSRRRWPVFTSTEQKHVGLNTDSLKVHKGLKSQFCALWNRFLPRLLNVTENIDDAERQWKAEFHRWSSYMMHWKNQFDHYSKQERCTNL
The experiment in a line: biochemical.

The conditions of data set [5]: cited from earlier work.
The target in data set [6] is T4, acetylcholinesterase from homogenate of in toto rat brain (Rattus norvegicus, UniProt P37136).
T4 construct: acetylcholinesterase from homogenate of in toto rat brain; from tissue; host or cells: rat whole brain homogenate
T4 sequence (P37136 32-614): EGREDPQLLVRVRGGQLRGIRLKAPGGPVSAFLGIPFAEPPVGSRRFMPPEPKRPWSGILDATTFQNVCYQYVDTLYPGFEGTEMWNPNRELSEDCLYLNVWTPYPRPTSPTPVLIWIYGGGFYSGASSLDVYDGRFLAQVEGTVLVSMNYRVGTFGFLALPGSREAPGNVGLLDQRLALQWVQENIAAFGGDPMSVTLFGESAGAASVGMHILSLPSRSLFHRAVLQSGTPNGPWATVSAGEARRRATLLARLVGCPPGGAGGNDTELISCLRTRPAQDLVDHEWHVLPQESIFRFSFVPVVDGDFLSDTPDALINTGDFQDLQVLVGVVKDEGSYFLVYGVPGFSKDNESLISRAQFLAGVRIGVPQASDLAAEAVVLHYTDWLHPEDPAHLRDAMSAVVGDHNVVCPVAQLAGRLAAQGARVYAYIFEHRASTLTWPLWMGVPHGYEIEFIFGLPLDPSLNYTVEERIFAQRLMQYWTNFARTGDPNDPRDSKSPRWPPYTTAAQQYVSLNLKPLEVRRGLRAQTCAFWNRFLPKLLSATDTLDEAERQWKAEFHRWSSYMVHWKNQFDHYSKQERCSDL
The experiment in a line: Inhibition of acetylcholinesterase from rat brain homogenate. The format is biochemical. Conditions: contact time 10'; read-out: Cholinesterase Inhibition IC50, AChE rat brain. The text has this:
The compounds prepared as per the Examples reported above and several other compounds under the present invention (Table 1) were pharmacologically tested with a view to determining their inhibitory effect on acetylcholinesterase and butyrylcholinesterase activity. The used method had been developed by Ellman et al. (Ellman, G. L., Courtney, K. D., Andres, V., Featherstone, R. M.: "A New and Rapid Colorimetric Determination of Acetylcholinesterase Activity", Biochem. Pharm. 7, 88, 1961).
AChE rat brain: acetylcholinesterase from homogenate of in toto rat brain
t: contact time (minutes)
IC50 M: median inhibitory molar concentration

Where [7] appears, read: Cholinesterase Inhibition IC50, AChE hRBC, contact time 30'.
Setting [8] is: Cholinesterase Inhibition IC50, AChE hRBC, contact time 60'.
The mark [9] stands for this setting: contact time 10', read-out: Cholinesterase Inhibition IC50, AChE hRBC.
The mark [10] stands for this setting: Cholinesterase Inhibition IC50, AChE E.eel, contact time 10'.

T2 sequence (P06276 29-602): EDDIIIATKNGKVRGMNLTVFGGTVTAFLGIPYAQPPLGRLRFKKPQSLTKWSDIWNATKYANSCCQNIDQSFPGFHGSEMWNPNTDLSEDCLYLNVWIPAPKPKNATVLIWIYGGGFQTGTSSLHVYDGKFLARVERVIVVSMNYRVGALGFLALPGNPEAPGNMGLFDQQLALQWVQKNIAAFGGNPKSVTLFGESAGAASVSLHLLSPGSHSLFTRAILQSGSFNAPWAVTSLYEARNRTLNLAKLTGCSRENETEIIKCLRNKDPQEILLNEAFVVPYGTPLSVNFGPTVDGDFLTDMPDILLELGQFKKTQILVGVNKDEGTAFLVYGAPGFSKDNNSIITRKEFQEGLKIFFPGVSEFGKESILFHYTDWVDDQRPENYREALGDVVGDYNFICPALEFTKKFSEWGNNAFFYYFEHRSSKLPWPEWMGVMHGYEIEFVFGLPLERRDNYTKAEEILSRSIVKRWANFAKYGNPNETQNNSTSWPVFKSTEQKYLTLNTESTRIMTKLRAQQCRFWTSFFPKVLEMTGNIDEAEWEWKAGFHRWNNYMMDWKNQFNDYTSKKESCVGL

Turning to `CNC(=O)Oc1ccc2c(c1)[C@]1(C)CCN(C)[C@@H]1N2C` [ESERINE, physostigmine], in the data set on acetylcholinesterase, the “Acetylcholinesterase inhibition, prior art (in words)” value (“Acetylcholinesterase inhibition” below) was “potent natural inhibitor of acetylcholinesterase”. Besides, the LD50 (usually the dose at which mortality reaches 50%) in “in vivo” amounted to 4.5 mg/kg. In [1], the “Pharmacokinetic properties (in words)” value is given as “unfavourable pharmacokinetic properties”. Also, in the data set on patients, the “Clinical effects in patients (in words)” value is on record as “beneficial effects on patients affected by mental diseases”.
For `CCCCCCCNC(=O)Oc1ccc2c(c1)[C@]1(C)CCN(C)[C@@H]1N2C` [MF 201, heptylcarbamic ester of eseroline, reference compound], the pIC50 (as a rule, −log10 of the IC50, conventionally taken in molar units) in data set [2] (read-out: Cholinesterase Inhibition IC50, AChE hRBC) is 6.54; in data set [3], 7.40; in [4] (contact time 10', read-out: Cholinesterase Inhibition IC50, AChE E.eel) it was 6.26; in data set [4] (contact time 30', read-out: Cholinesterase Inhibition IC50, AChE E.eel), 6.39; in [4] (contact time 60', read-out: Cholinesterase Inhibition IC50, AChE E.eel) it was 6.36. For the same molecule, in the data set on acetylcholinesterase, the “Acetylcholinesterase inhibition” value was “less potent acetylcholinesterase inhibitor than physostigmine”. Also, in data set [1], the “Pharmacokinetic properties (in words)” value is “better pharmacokinetic properties”. For the same molecule, the “Neutropenia in patients (in words)” value in the data set on patients (clinical pilot test, Alzheimer's disease) is reported as “neutropenia phenomena in some, though very few, patients”. The “Clinical effects in patients (in words)” value in the data set on patients was “good results in a clinical pilot test on patients affected by Alzheimer's disease”. In addition, the “Side effects, prior art (in words)” value in data set [5] is “reduced side effects”.
In the case of `CN1CC[C@@]2(C)c3cc(OC(=O)NCCCCCCCCCCCCN4CCOCC4)ccc3N(C)[C@@H]12` [MF 228, N-morpholinyldodecylcarbamoyleseroline], the pIC50 in [2] (setting [7]) is 7.22; in data set [2] (setting [8]), 7.52; in data set [2] (setting [9]) it was 7.15; in data set [3], 7.00; in [4] (setting [10]), 7.15; in [6] it was 6.42.
Regarding `CN1CC[C@@]2(C)c3cc(OC(=O)NCCCCCCN4CCOCC4)ccc3N(C)[C@@H]12` [MF 227, N-morpholinylhexylcarbamoyleseroline], the pIC50 was 6.42 in data set [2] (setting [7]); 6.03 in data set [2] (setting [9]); 7.00 in data set [3]; 4.92 in data set [4] (setting [10]); 5.09 in [6].
Regarding `CN1CC[C@@]2(C)c3cc(OC(=O)NCCCCCCCN4CCOCC4)ccc3N(C)[C@@H]12` [MF 224, N-morpholinylheptylcarbamoyleseroline], the pIC50 was 6.77 in data set [2] (setting [7]); 6.42 in [2] (setting [9]); 6.52 in data set [3]; 5.80 in [4] (setting [10]); 5.39 in data set [6].
Regarding `CN1CC[C@@]2(C)c3cc(OC(=O)NCCCCCCCCN4CCOCC4)ccc3N(C)[C@@H]12` [MF 217, N-morpholinyloctylcarbamoyleseroline], the pIC50 was 7.00 in data set [2] (Cholinesterase Inhibition IC50, AChE hRBC, contact time 10'); 7.12 in data set [2] (setting [7]); 7.20 in data set [2] (setting [8]); 6.77 in data set [3]; 6.48 in data set [4] (setting [10]); 6.06 in data set [6]. Moreover, the “Activity against human red blood cells acetylcholinesterase (in words)” value in [2] (Table 2 results) is listed as “Particularly active”. The molecule further showed an LD50 in the data set “in vivo” of 23 mg/kg.
Turning to `CN1CC[C@@]2(C)c3cc(OC(=O)N4CCOCC4)ccc3N(C)[C@@H]12` [MF 215, reference compound], the “Activity compared with the compounds of this invention (in words)” value in [2] (compared with the compounds of this invention) is recorded as “much lower activity”. For the same molecule, the pIC50 in data set [2] (read-out: Cholinesterase Inhibition IC50, AChE hRBC, contact time 10') is 4.72; in data set [2] (read-out: Cholinesterase Inhibition IC50, AChE hRBC, contact time 30') it was 4.92; in [2] (read-out: Cholinesterase Inhibition IC50, AChE hRBC, contact time 60'), 4.80; in data set [3] (read-out: Cholinesterase Inhibition IC50, BuChE hserum, contact time 10'), 3.06. Further, in the data set with acetylcholinesterase, the “Acetylcholinesterase inhibition” value is “low acetylcholinesterase activity depression”.
For the molecule `CN1CC[C@@]2(C)c3cc(OC(=O)NCCCCCN4CCOCC4)ccc3N(C)[C@@H]12` [MF 225, N-morpholinylpentylcarbamoyleseroline], the pIC50 is 5.66 in data set [2] (setting [7]), 5.12 in data set [2] (setting [9]), 3.48 in data set [4] (setting [10]) and 3.30 in data set [6].
